According to ChEMBL document CHEMBL4834430, “Design and Structure-Activity Relationships of Isothiocyanates as Potent and Selective N-Acylethanolamine-Hydrolyzing Acid Amidase Inhibitors” (J Med Chem, 2021):

Assays:
[1] = Half life in human liver microsomes at 1 uM in presence of NADPH by LC-MS/MS analysis; type: ADME, Microsome
[2] = Half life in rat liver microsomes at 1 uM in presence of NADPH by LC-MS/MS analysis; type: ADME, Microsome
[3] = Drug metabolism in rat liver microsomes assessed as […] (R)-2-amino-3-((1s,3S)-3-(2-fluoro-4-(2-methoxypyridin-3-yl)benzyloxy)cyclobutylcarbamoylthio)propanoic acid formation at 1 uM in absence of NADPH by LC-MS/MS analysis; type: ADME
[4] = Half life in mouse liver microsomes at 1 uM in presence of NADPH by LC-MS/MS analysis; type: ADME, Microsome
[5] = Drug metabolism in rat liver microsomes assessed as (2-fluoro-4-(2-methoxypyridin-3-yl)phenyl)methanol formation at 1 uM in presence of NADPH by LC-MS/MS analysis; type: ADME, Microsome
[6] = Drug metabolism in rat liver microsomes assessed as (1s,3s)-3-(2-fluoro-4-(2-methoxypyridin-3-yl)benzyloxy)cyclobutanamine formation at 1 uM in presence of NADPH by LC-MS/MS analysis; type: ADME, Microsome
[7] = target: T1, N-acylethanolamine-hydrolyzing acid amidase (Homo sapiens, UniProt Q02083); assay: Inhibition of human NAAA using N-(4-methyl coumarin)-palmitamide as fluorogenic substrate preincubated for 90 mins followed by substrate addition by fluorescence assay
T1 sequence (Q02083 whole entry): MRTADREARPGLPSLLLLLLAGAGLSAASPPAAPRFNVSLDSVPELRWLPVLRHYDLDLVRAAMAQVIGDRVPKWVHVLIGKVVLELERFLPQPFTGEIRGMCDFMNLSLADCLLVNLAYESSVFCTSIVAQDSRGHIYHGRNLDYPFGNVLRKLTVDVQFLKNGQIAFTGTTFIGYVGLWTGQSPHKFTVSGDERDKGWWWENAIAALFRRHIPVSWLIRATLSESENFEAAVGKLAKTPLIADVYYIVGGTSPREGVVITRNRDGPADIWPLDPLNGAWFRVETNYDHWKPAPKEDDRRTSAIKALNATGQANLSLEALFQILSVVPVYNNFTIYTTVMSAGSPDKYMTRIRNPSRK

[8] = Drug metabolism in rat liver microsomes assessed as (R)-2-amino-3-((1s,3S)-3-(2-fluoro-4-(2-methoxypyridin-3-yl)benzyloxy)cyclobutylcarbamothioylthio)propanoic acid formation at 1 uM in absence of NADPH by LC-MS/MS analysis; type: ADME, Microsome
[9] = target: T1, N-acylethanolamine-hydrolyzing acid amidase; assay: Inhibition of NAAA (unknown origin)

Row | IC50 [9] [nM] | Compound | half-life at 1 µM [1] [min] | half-life at 1 µM [2] [min] | Drug metabolism [3] | half-life at 1 µM [4] [min] | Drug metabolism [5] | Drug metabolism [6] | IC50 [7] [nM] | Drug metabolism [8]
1 | – | COc1ncccc1-c1ccc(CO[C@H]2C[C@@H](N=C=S)C2)c(F)c1 | 15.3 | 14.5 | Metabolite_Detected | 6.8 | Metabolite_Detected | Metabolite_Detected | 304 | Metabolite_Detected
2 | 9 | O=C(CCCCCc1cccc(Cl)c1)N1CCOC1=O | – | – | – | – | – | – | – | –
